Assay results published in US20130065818A1, “Arylamide Compounds And Compositions And Uses Thereof” (POLYMEDIX, priority 2006, published 2013).
Where “and” joins values, the source holds several entries; their conditions need not be identical. Equal entries are not always repeated. Entries after “also recorded” stand apart in the source; their conditions may differ. Each block holds one compound with its values, some of them ahead of it.

Assays:
[1] = system: fluoroquinolone-resistant, methicillin-resistant Staphylococcus aureus (K950); experiment: NZW rabbit keratitis model, corneal colony counts; format: in vivo; conditions: for Log10 CFU/ml, Median / Log10 CFU/ml Maximum / Log10 CFU/ml Minimum / Log10 CFU/ml, Mean: 6 corneas; for Mean Rank, Kruskal-Wallis ANOVA with Duncan Multiple Comparisons Test - Log10 CFU/ml / Statistical comparison of colony counts between groups (< = significantly fewer colony counts): P = 0.05; for Log10 CFU/ml Maximum / Log10 CFU/ml Minimum / Log10 CFU/ml, Mean: Descriptive Statistics; for Reduction of colony counts compared with the Saline Control: corneal epithelium intact or removed; for Log10 CFU/ml: individual corneas (Row 1-6; K-3, K-4); for CFU/ml: individual corneas (Row 1-6; Ker-3, Ker-4)
Excerpt: (§1) One purpose of the following experiments was to compare the efficacy of 1% Oligomer 2, 0.5% Oligomer 2, and 5% vancomycin in the treatment of a fluoroquinolone-resistant, methicillin-resistant Staphylococcus aureus infection in the NZW rabbit keratitis model with or without intact corneal epithelia.
Nothing was done to the right eyes.
as §1, with “0.25%” for “1%”, “with and without 0.005% benzalkonium chloride,” for “0.5% Oligomer 2,”, “epithelia. The 0.005% benzalkonium chloride has been added to try to increase the penetration of 0.25% Oligomer 2 through the corneal epithelium.” for “epithelia.”
One purpose of the following experiments was to determine the efficacy of 0.25% Oligomer 4, with and without 200 μM Farnesol, and 200 μM Farnesol in the treatment of a fluoroquinolone-resistant and methicillin-resistant Staphylococcus aureus infection in the NZW rabbit keratitis model with or without intact corneal epithelia. The 200 μM Farnesol has been added to try to increase the efficacy and penetration of 0.25% Oligomer 4 through the corneal epithelium.

[2] = Draize ocular toxicity scoring, NZW rabbit ocular toxicity model; format: in vivo; parameters: key to MMTS / Score (Draize total): Draize total score of cornea, iris and conjunctivae; maximum 110; III. B. Chemosis / I. A. Cornea opacity / I. B. Area of cornea involved / II. A. Iris / III. A. Conjunctivae redness / III. C. Discharge: scale not given here
Protocol: The ocular toxicity of several concentrations of Oligomer 2, using the Draize ocular toxicity scoring system, in the NZW rabbit ocular toxicity model was carried out.
(§2) Rabbits were treated in both eyes with (37 μl) topical drops every 30 minutes for 3 hours (7 total doses). One rabbit was treated with Tris-Buffered Saline and served as a negative control. Rabbits were evaluated in a masked fashion for ocular toxicity by an ophthalmologist with specialty training in corneal and external disease. Ocular toxicity was evaluated using the Draize scoring system after treatment on Day 0 and on Day 3 post treatment for any delayed toxicity. (Draize et al., J. Pharmacol. Exp. Ther., 1944, 82, 377-390).
A brief summary of the Draize scoring system for ocular lesions is provided below
Total Maximum Score: 110 represents the sum of all scores obtained for the cornea, iris and conjunctivae.
The ocular toxicity of several formulations of Oligomer 4 with and without farnesol, using the Draize ocular toxicity scoring system, in the NZW rabbit ocular toxicity model was carried out.
as §2, with “external disease 30 minutes after the final dose.” for “external disease.”, “system (see above)” for “system”, “Day 2” for “Day 3”, “toxicity.” for “toxicity. (Draize et al., J. Pharmacol. Exp. Ther., 1944, 82, 377-390).”

[3] = 100 μM Farnesol in 1% PG and TBS, Day 0
[4] = 100 μM Farnesol in 1% PG and TBS, Day 0, per eye
[5] = 100 μM Farnesol in 1% PG and TBS, Day 2
[6] = 100 μM Farnesol in 1% PG and TBS, Day 2, per eye
[7] = 100 μM in 1% Propylene Glycol (PG) and TBS, Day 0
[8] = 100 μM in 1% Propylene Glycol (PG) and TBS, Day 2
[9] = 200 μM Farnesol in 1% PG and TBS, Day 0
[10] = 200 μM Farnesol in 1% PG and TBS, Day 0, per eye
[11] = 200 μM Farnesol in 1% PG and TBS, Day 2
[12] = 200 μM Farnesol in 1% PG and TBS, Day 2, per eye
[13] = 200 μM in 1% Propylene Glycol (PG) and TBS, Day 0
[14] = 200 μM in 1% Propylene Glycol (PG) and TBS, Day 2

Structure (SMILES): CC(C)=CCCC(C)=CCCC(C)=CCO [Farnesol]
Log10 CFU/ml, Median ([1]; Abraded Epithelium): 6.849 Log10 CFU/ml and 6.8489 Log10 CFU/ml | Log10 CFU/ml, Median ([1]; Intact Epithelium): 7.3000 Log10 CFU/ml | Mean Rank, Kruskal-Wallis ANOVA with Duncan Multiple Comparisons Test - Log10 CFU/ml ([1]; Abraded Epithelium): 23.5000 | Statistical comparison of colony counts between groups (< = significantly fewer colony counts) ([1]; Abraded Epithelium): PMX = P + F < ONSET < FARN = CON | Effect of Abraded Epithelium on Effectiveness of Each Test Solution (colony counts, < = significantly fewer) ([1]; Abraded vs. Intact Epithelium, Mann-Whitney Test): FARN-AE < FARN-IE; also recorded: Abraded < Intact | Log10 CFU/ml Maximum ([1]; Abraded Epithelium): 6.916 Log10 CFU/ml | Log10 CFU/ml Minimum ([1]; Abraded Epithelium): 6.109 Log10 CFU/ml | Log10 CFU/ml, Mean ([1]; Abraded Epithelium): 6.626 Log10 CFU/ml | Log10 CFU/ml Maximum ([1]; Intact Epithelium): 7.6551 Log10 CFU/ml | Log10 CFU/ml Minimum ([1]; Intact Epithelium): 7.1818 Log10 CFU/ml | Log10 CFU/ml, Mean ([1]; Intact Epithelium): 7.3624 Log10 CFU/ml | Effect of Abraded Epithelium on Effectiveness of Each Test Solution (colony counts, abraded vs. intact) ([1]; Example 11, Mann-Whitney test, < = significantly fewer colony counts): Abraded = Intact | Point estimate for ETA1-ETA2 (Mann-Whitney, Log10 CFU/ml), Intact minus Abraded Epithelium ([1]; IE Log vs AE Log of the same test solution): Point estimate for ETA1-ETA2 is 0.5964 | Mean Rank, Kruskal-Wallis ANOVA with Duncan Multiple Comparisons Test - Log10 CFU/ml ([1]; Intact Epithelium): 22.1667 | Statistical comparison of colony counts between groups (< = significantly fewer colony counts) ([1]; Intact Epithelium): ONSET = PMX = P + F < FARN = CON | Statistical comparison of corneal colony counts (< = significantly fewer colony counts) ([1]; Ker-3 (Example 11), abraded epithelium, 21 doses): PMX═P+F═ONSET<FARN═CON | Statistical comparison of corneal colony counts (< = significantly fewer colony counts) ([1]; Ker-3 (Example 11), intact epithelium, 21 doses): ONSET=PMX═P+F<FARN═CON | Reduction of colony counts compared with the Saline Control ([1]; Ker-3): NOT effective | Colony counts, corneal epithelium removed compared with intact epithelium ([1]; Ker-4): significantly fewer colony counts in eyes with the corneal epithelium removed | Statistical comparison of corneal colony counts (< = significantly fewer colony counts) ([1]; Ker-4 (Example 12), abraded epithelium): PMX═P+F<ONSET<FARN═CON | Statistical comparison of corneal colony counts (< = significantly fewer colony counts) ([1]; Ker-4 (Example 12), intact epithelium): ONSET=PMX═P+F<FARN═CON | Reduction of colony counts compared with the Saline Control ([1]; Ker-4): not effective | Log10 CFU/ml ([1]; Abraded Epithelium): 6.875 Log10 CFU/ml and 6.109 Log10 CFU/ml and 6.146 Log10 CFU/ml and 6.889 Log10 CFU/ml and 6.823 Log10 CFU/ml and 6.916 Log10 CFU/ml | Log10 CFU/ml ([1]; Intact Epithelium): 7.182 Log10 CFU/ml and 7.259 Log10 CFU/ml and 7.479 Log10 CFU/ml and 7.655 Log10 CFU/ml and 7.27 Log10 CFU/ml and 7.33 Log10 CFU/ml | CFU/ml ([1]; Abraded Epithelium): 7500000 CFU/ml and 1285000 CFU/ml and 1400000 CFU/ml and 7750000 CFU/ml and 6650000 CFU/ml and 8250000 CFU/ml | CFU/ml ([1]; Intact Epithelium): 15200000 CFU/ml and 18150000 CFU/ml and 30100000 CFU/ml and 45200000 CFU/ml and 18600000 CFU/ml and 21400000 CFU/ml | Classification of eye irritation [2, 3]: Non-Irritating | MMTS [2, 3]: 0.0 | MMTS classification symbol [2, 3]: N (0.0-0.5 Non-Irritating) | I. A. Cornea opacity [2, 4]: 0 | I. B. Area of cornea involved [2, 4]: 0 | I. Tot (cornea, A × B × 5) [2, 4]: 0 | II. A. Iris [2, 4]: 0 | II. Tot (iris, A × 5) [2, 4]: 0 | III. A. Conjunctivae redness [2, 4]: 0 | III. B. Chemosis [2, 4]: 0 | III. C. Discharge [2, 4]: 0 | III. Tot (conjunctivae, (A + B + C) × 2) [2, 4]: 0 | Score (Draize total) [2, 4]: 0 | MMTS [2, 5]: 1.5 | MMTS classification symbol [2, 5]: PN (0.6-2.5 Practically Non-Irritating) | I. A. Cornea opacity [2, 6]: 0 | I. B. Area of cornea involved [2, 6]: 0 | I. Tot (cornea, A × B × 5) [2, 6]: 0 | II. A. Iris [2, 6]: 0 | II. Tot (iris, A × 5) [2, 6]: 0 | III. A. Conjunctivae redness [2, 6]: 0 | III. B. Chemosis [2, 6]: 0 | MMTS [2, 7]: 0.0 | MMTS classification [2, 7]: N (0.0-0.5 Non-Irritating) | MMTS [2, 8]: 1.5 | MMTS classification [2, 8]: PN (0.6-2.5 Practically Non-Irritating) | Classification of eye irritation [2, 9]: Non-Irritating | MMTS [2, 9]: 0.5 | MMTS classification symbol [2, 9]: N (0.0-0.5 Non-Irritating) | I. A. Cornea opacity [2, 10]: 0 | I. B. Area of cornea involved [2, 10]: 0 | I. Tot (cornea, A × B × 5) [2, 10]: 0 | II. A. Iris [2, 10]: 0 | II. Tot (iris, A × 5) [2, 10]: 0 | III. A. Conjunctivae redness [2, 10]: 0 | III. B. Chemosis [2, 10]: 0 | Classification of eye irritation [2, 11]: Non-Irritating | MMTS [2, 11]: 0.5 | MMTS classification symbol [2, 11]: N (0.0-0.5 Non-Irritating) | I. A. Cornea opacity [2, 12]: 0 | I. B. Area of cornea involved [2, 12]: 0 | I. Tot (cornea, A × B × 5) [2, 12]: 0 | II. A. Iris [2, 12]: 0 | II. Tot (iris, A × 5) [2, 12]: 0 | III. A. Conjunctivae redness [2, 12]: 0 | III. B. Chemosis [2, 12]: 0 | MMTS [2, 13]: 0.5 | MMTS classification [2, 13]: N (0.0-0.5 Non-Irritating) | MMTS [2, 14]: 0.5 | MMTS classification [2, 14]: N (0.0-0.5 Non-Irritating)

Effect of addition of 0.005% benzalkonium chloride (BAK) on penetration through the intact corneal epithelium ([1]; Ker-2, 0.25% Oligomer 2): did not aid in the penetration
Structure (SMILES): N=C(N)NCCCCC(=O)Nc1cc(C(F)(F)F)cc(NC(=O)c2cc(C(=O)Nc3cc(C(F)(F)F)cc(NC(=O)CCCCNC(=N)N)c3SCCN)ncn2)c1SCCN [Oligomer 2]
Statistical comparison of corneal colony counts (< = significantly fewer colony counts) ([1]; Ker-1 (Example 9), abraded (removed) epithelium, drops every 15 min, 19 doses): effective | Statistical comparison of corneal colony counts (< = significantly fewer colony counts) ([1]; Ker-2 (Example 10), abraded (removed) epithelium, drops every 15 min, 21 doses): effective | Penetration of the corneal epithelium into the corneal stroma ([1]; in vivo): does not penetrate the corneal epithelium | I. A. Cornea opacity ([2]; NZW, rabbit, in vivo, 0 day): 0 | I. B. Area of cornea involved ([2]; NZW, rabbit, in vivo, 0 day): 0 | I. Tot (cornea, A × B × 5) ([2]; NZW, rabbit, in vivo, 0 day): 0 | I. A. Cornea opacity ([2]; NZW, rabbit, in vivo, 3 day): 0 | I. B. Area of cornea involved ([2]; NZW, rabbit, in vivo, 3 day): 0 | I. Tot (cornea, A × B × 5) ([2]; NZW, rabbit, in vivo, 3 day): 0 | II. A. Iris ([2]; NZW, rabbit, in vivo, 3 day): 0 | II. Tot (iris, A × 5) ([2]; NZW, rabbit, in vivo, 3 day): 0 | III. A. Conjunctivae redness ([2]; NZW, rabbit, in vivo, 3 day): 0 | III. B. Chemosis ([2]; NZW, rabbit, in vivo, 3 day): 0 | III. C. Discharge ([2]; NZW, rabbit, in vivo, 3 day): 0 | III. Tot (conjunctivae, (A + B + C) × 2) ([2]; NZW, rabbit, in vivo, 3 day): 0 | Score (Draize total) ([2]; NZW, rabbit, in vivo, 3 day): 0 | Dose dependence of ocular toxicity ([2]; rabbit, in vivo): dose dependent ocular toxicity | Stinging / acute reactions upon instillation ([2]; rabbit, in vivo): does not sting upon instillation
